Results published in patent US8163513B2, “Method for determining the total clotting activity of a blood or plasma sample” (JenAffin GmbH, priority 2005, dated 2012).

Tested on: thrombin
Test: THROGA (thrombin generation assay): maximal thrombin generation in citrate blood or plasma of treated patients
Assay type: in vivo, human
Procedure: For maximal generation of thrombin, a small amount of anti-coagulant blood or plasma is used. For this, citrate, but also every other anti-coagulant may be used. 0.1 ml citrate blood or citrate plasma each are put into a reference tube (NaCl) and an activator tube (tissue factor+mixture of ellagic acid and phospholipids) in which a defined amount of hirudin is present. After closing the reaction vessels, the two containers are mixed in a mini shaker at 550 rpm at room temperature for 25 minutes. The activation of coagulation is subsequently terminated with a stop solution containing EDTA and the remaining not-consumed free hirudin is determined with a precise detection method. For the exact measurement of the hirudin content in the reaction vessels, a commercial available chromogenic hirudin determination method via chromogenic substrate (ECA, Ecarin Chromogenic Assay, WO 0046602) is employed.
For one determination, 100 μl citrate blood or citrate plasma, respectively, are put into one activator tube and one reference tube each. In order to avoid evaporation, the tubes should be closed after dissolving (“Lösen”). Subsequently, the tubes are put into a shaker for 30-60 minutes. In order to terminate the reaction after shaking, 1000 μl stop reagent are added into each tube and carefully mixed with the pipette.
In both THROGA-samples (reference tube and activator tube) the anti-thrombin units (ATU) are now determined via ECA-H.
From the ATU determined in reference tube and activator tube, respectively, the thrombin units formed in the plasma or blood sample are calculated with the following formula: ETP=R−A • ETP maximal endogenic thrombin potential, thrombin units formed in 1 ml blood or plasma • R anti-thrombin units in the reference tube (ATU/ml blood or plasma) • A anti-thrombin units in the activator tube (ATU/ml blood or plasma) Generating a Reference Curve

[1] = patient two under falithrom, blood
[2] = patient two under falithrom, plasma

## COC(=O)[C@H](c1ccccc1Cl)N1CCc2sccc2C1 [clopidogrel]
Patient one, state after cerebral insult, after 8 weeks of clopidogrel, 1.5 tablets daily (112.5 mg), blood, norm 78±13 TU/ml, 99.5 prior to therapy
  ATU/ml; TU/ml (generated thrombin, THROGA-value), blood: 82.2 TU/ml
Patient one, under clopidogrel therapy
  THROGA-values in all further controls: normal
Patient one, after 8 weeks of clopidogrel, 1.5 tablets daily (112.5 mg), plasma, N: 122±19 TU/ml, 118.5 prior to therapy
  ATU/ml; TU/ml (generated thrombin, THROGA-value), plasma: 116.9 TU/ml

## CCC(c1ccccc1)c1c(O)c2ccccc2oc1=O (stereo not shown) [falithrom]
[1]
  % of the normal generable thrombin amount in the blood: 60%
  generated thrombin in the blood: 46.3 TU/ml
Patient two under falithrom, judged from the THROGA-value in blood
  bleeding tendency: no bleeding tendency can be observed
[2]
  % of the normal plasma value: 32%
  generated thrombin in the plasma: 39.3 TU/ml
Patient two, thrombophilia upon gammopathy, thrombosis prophylaxis with falithrom, blood, use of the kit
  Difference control (A) minus activated sample (B), blood: 46.3 ATU/ml
Patient two, thrombosis prophylaxis with falithrom, plasma, use of the kit
  Difference control (A) minus activated sample (B), plasma: 39.3 ATU/ml
